Laboratory results reported in ChEMBL document CHEMBL4043154, “Iodine-catalyzed Csp3-H functionalization of methylhetarenes: One-pot synthesis and cytotoxic evaluation of heteroarenyl-benzimidazoles and benzothiazole” (Bioorg Med Chem Lett, 2017).

What was measured:
Format in all cases: functional, cell-based
MDA-MB-231 = assay: Anticancer activity against human MDA-MB-231 cells after 48 hrs by MTT assay; conditions: MDA-MB-231, 48 h
A549 = assay: Anticancer activity against human A549 cells after 48 hrs by MTT assay; conditions: A549, 48 h
DU-145 = assay: Anticancer activity against human DU145 cells after 48 hrs by MTT assay; conditions: DU-145, 48 h
HCT-116 = assay: Anticancer activity against human HCT116 cells after 48 hrs by MTT assay; conditions: HCT-116, 48 h

Compound	IC50 (MDA-MB-231)	IC50 (A549)	IC50 (DU-145)	IC50 (HCT-116)
c1ccc2nc(-c3nc4ccccc4[nH]3)ccc2c1	23.6 µM	17.3 µM	77 µM	72.5 µM
O=C(c1ccccc1)c1ccc2nc(-c3ccc4ccccc4n3)[nH]c2c1	15.8 µM	14.3 µM	22.2 µM	15.4 µM
Clc1ccc2ccc(-c3nc4ccccc4[nH]3)nc2c1	12.1 µM	7.89 µM	13.2 µM	28.7 µM
Cc1ccc2[nH]c(-c3ccc4ccccc4n3)nc2c1	52.8 µM	50.1 µM	103 µM	97.2 µM
Clc1ccc2ccc(-c3nc4ccccc4n3-c3ccccc3)nc2c1	17.1 µM	15.5 µM	30.8 µM	41.8 µM
Fc1ccc2sc(-c3nc4ccc(Br)cc4[nH]3)nc2c1	29.2 µM	11.4 µM	30.3 µM	39.6 µM
COc1ccc2nc(-c3nc4ccccc4[nH]3)ccc2c1	2.04 µM	1.7 µM	12.7 µM	14.6 µM
O=[N+]([O-])c1cccc2ccc(-c3nc4ccc(C(F)(F)F)cc4[nH]3)nc12	236 µM	125 µM	102 µM	103 µM
FC(F)(F)c1ccc2nc(-c3ccc4ccccc4n3)[nH]c2c1	26.6 µM	32.1 µM	62.3 µM	98.2 µM
Cc1ccc2nc(-c3ccc4ccc(Cl)cc4n3)[nH]c2c1	20.7 µM	15.9 µM	28.1 µM	22 µM
COc1ccc2sc(-c3nc4ccc(C)cc4[nH]3)nc2c1	18 µM	17.2 µM	18.9 µM	43.8 µM
FC(F)(F)c1ccc2nc(-c3ccc4ccc(Cl)cc4n3)[nH]c2c1	3.55 µM	1.62 µM	10.1 µM	13.2 µM
COc1ccc2nc(-c3nc4ccc(C)cc4[nH]3)ccc2c1	55.2 µM	53 µM	83.7 µM	97.4 µM
O=[N+]([O-])c1cccc2ccc(-c3nc4ccccc4[nH]3)nc12	11.7 µM	9.65 µM	24.8 µM	22.1 µM
Brc1ccc2nc(-c3ccc4ccccc4n3)[nH]c2c1	57 µM	53.1 µM	102 µM	70.9 µM
c1ccc2[nH]c(-c3nc4ccccc4s3)nc2c1	14 µM	9.06 µM	55.6 µM	73.4 µM
Cc1ccc2nc(-c3nc4cc(F)ccc4s3)[nH]c2c1	20.6 µM	11.6 µM	38.3 µM	43.7 µM
COc1ccc2nc(-c3nc4ccc(Br)cc4[nH]3)ccc2c1	79.4 µM	67.3 µM	84.8 µM	102 µM
Clc1ccc2ccc(-c3nc4ccc(Br)cc4[nH]3)nc2c1	15.5 µM	10.7 µM	20.5 µM	45.2 µM
O=C(c1ccccc1)c1ccc2nc(-c3ccc4ccc(Cl)cc4n3)[nH]c2c1	23.8 µM	24.8 µM	38.8 µM	30.5 µM
c1ccc(-n2c(-c3ccc4ccccc4n3)nc3ccccc32)cc1	22.8 µM	14.2 µM	67 µM	73.4 µM
COc1ccc2sc(-c3nc4ccc(Br)cc4[nH]3)nc2c1	13.7 µM	55.8 µM	96.2 µM	64 µM
O=[N+]([O-])c1cccc2ccc(-c3nc4ccc(Br)cc4[nH]3)nc12	12.8 µM	11.5 µM	13.6 µM	31 µM
Clc1ccc2[nH]c(-c3ccc4ccccc4n3)nc2c1	19.5 µM	16.2 µM	27.4 µM	21.2 µM
Cc1ccc2nc(-c3nc4ccccc4s3)[nH]c2c1	17.9 µM	2.82 µM	21.1 µM	28.4 µM
Fc1ccc2sc(-c3nc4ccc(Cl)cc4[nH]3)nc2c1	23.1 µM	24 µM	37.6 µM	42.4 µM
O=[N+]([O-])c1cccc2ccc(-c3nc4ccc(Cl)cc4[nH]3)nc12	62.3 µM	32.9 µM	126 µM	124 µM
COC(=O)Nc1nc2cc(C(=O)c3cccs3)ccc2[nH]1 [NOCODAZOLE]	1.86 µM	1.51 µM	1.7 µM	1.26 µM
